This is an account of results in patent publication US20260071252A1, “REVERSIBLE NANOPARTICLE AGGREGATES AND METHODS FOR DETECTING PROTEASES” (The Regents of the University of California, priority 2022, published 2026).

Test [1] is described as follows: Peptide-enabled dissociation of RRK-induced AuNP aggregates. As to conditions: for dissociation of aggregated AuNPs in diverse matrixes: 100% human saliva, plasma, urine, and seawater; for concentration that dissociates AuNP aggregates: Gly spacer length; for particle dissociation: RRK-induced AuNP aggregates. The protocol: After inducing AuNP aggregates by the RRK peptides, the A1 peptides with different concentrations from 7 to 300 μM were used to dissociate AuNP aggregates. The plasmonic resonance peak of AuNP aggregates blue shifted to 520 nm after particle dissociation. (FIG. 37b). The hydrodynamic diameter of AuNP aggregates (greater than (>) 1 μm) was reduced to 27±0.07 nm, and the surface charge of AuNPs was—13.4±1.03 mV because of surface modification with neutral charged A1 peptides (150 μM) and residual citrates (FIG. 37c). Particle dissociation induced color change from blue to red and a decrease in size as confirmed by time-dependent photographs, multi-laser wavelength nanoparticle tracking analysis (M-NTA), and TEM (FIG. 37d-e and FIG. 45A-C).
To further study the role of each amino acid in the A1 peptide, we synthesized eight peptide sequences (from A2 to A8) for control experiments (FIG. 46A-H). Table 1 includes peptide sequence, net charge, critical dissociation concentrations (CDC), and design rationale. First, we replaced Cys residue with Gly (i.e., A2) to confirm the role of the anchoring group. […] Second, we hypothesized that negatively charged EE residues were required for particle dissociation because they provide electrostatic repulsions for citrate-coated AuNPs.
Briefly, 10 μM of RRK peptide was used to aggregate 100 μL of AuNPs (conc approximately 3.6 nM). The particle aggregation rapidly occurred (less than 10 s), changing color from red to blue. Then the desired dissociation peptides were used to dissociate the AuNP aggregates. It is notable that these exemplary AuNPs are stabilized by citrate. Different surface ligands (for example, BSPP) and different sizes (40 or 60 nm) require different amounts of RRK peptide for particle aggregation.
Briefly, RRK peptides (8-10 μM) was first used to trigger AuNP aggregation in distilled water. The sample was centrifuged at […] for 5 min to remove the supernatant. Then, the pellet was re-dispersed in 100% human saliva, plasma, urine, and seawater. After re-dispersion, the desired amounts of dissociation peptide were used to dissociate AuNPs aggregates in different matrixes. […] The experiment was performed with three replicates, and the microplate reader was used to measure spectral scanning from 300 to 900 nm before and after dissociation. The ratiometric signal (λ520/λ700) was referred as dissociation. The data was blanked to remove background signal.

Test [2] concerns the target SARS-CoV-2 main protease (Mpro) (Severe acute respiratory syndrome coronavirus 2, UniProt P0DTD1).
Test [3] is described as follows: Dissociation of Arg-Arg-AuNPs assemblies with HS-PEGs (UV-Vis percentage of dissociation, MANTA size). The settings on record: for dissociation of Arg-Arg-AuNPs assemblies: anchoring group / non-PEG ligand controls, up to >100 μM. An excerpt:
Dissociation of the AuNPs assemblies. […] HS-PEG6-OCH3 was chosen because its grafting on AuNPs ensure a high colloidal stability of these latter. Indeed, the grafting of thiolated PEGs has been widely reported in the literature via the formation of a strong Au—S bond conferring to the particles a high colloidal stability due to a combination of hydrophilicity and steric hindrance.^30-32 The Au—S bond being stronger than the arginine-citrate, arginine-gold or even citrate-gold interactions, […] was expected to be capable of progressively replacing the arginine/citrate layers at the gold surface, disrupting the electrostatic network, and eventually dispersing the AuNPs (Scheme 1). Briefly, aqueous suspensions Arg-Arg-AuNPs assemblies were exposed to increasing concentrations of HS-PEG6-OCH3, and the dissociation of the assemblies was characterized by TEM, MANTA, FTIR and UV-Vis spectroscopies (FIG. 2).
The presence of a PEG layer around the AuNPs explains the difference in the hydrodynamic diameter versus the initial AuNPs-citrate (48±32 nm vs 40±25 nm). Remarkably, the LSPR band of the dissociated AuNPs was identical to the AuNPs-citrate: The color of the sample returned to its initial bright red color. […] For the remainder of this study, the efficiency of the dissociation will be characterized by the percentage of dissociation (%) as measured by UV-Vis spectroscopy (comparison between the LSPR band after dissociation versus that from AuNPs-citrate). See the experimental section in the supporting information for more details. […] This finding is particularly interesting because the typical grafting density of HS-PEG6-OCH3 on dispersed AuNPs is reported to be between 3.5 and 4 HS-PEG6-OCH3/nm^2.^33 This implies that no excess of HS-PEGs was needed to dissociate the entire assembly-only enough to cover all the gold surface. It is worth noting that the kinetics of the dissociation was almost instantaneous (equilibrium reached within a minute) (FIG. 14). A video of the dissociation of the AuNPs assemblies is available online.
Dissociation. Stock solutions of the different HS-PEGs with concentrations ranging from 10 μM to 1 mM were prepared. Specific volumes of each solution were added to a 96-well plate in order to reach the desired final HS-PEGs concentration and then 100 μL of Arg-Arg-AuNPs were added. For complex matrices experiments, the Arg-Arg-AuNPs were first concentrated 10 times by centrifugation and then dispersed in complex media (sea water, pooled human saliva, plasma, urine, bile or HEK cell lysates) that represented thus 90% of the total volume except for bile, which was only 20%. Quickly after the addition of AuNPs, the dissociation of the assembly was monitored and the ratio of the absorbances at 520 nm and 700 nm was recorded over time. The percentage of dissociation is described as follows:
(§1) The optical absorption measurements were collected using a hybrid multi-mode microplate reader (Synergy™ H1 model, BioTek Instruments, Inc.) in a 96-well plate. The dissociation of assembly was characterized by measuring the ratio of the absorbance at 520 nm or 530 nm and 700 nm or 820 nm for 20 nm NPs or 40 nm NPs, respectively.
The multispectral advanced nanoparticle tracking analysis (MANTA) is a technique that builds images from the particles' light scattering via three lasers of different wavelengths (for example, blue, green, and red); the wavelength of scattering depends on nanoparticle size. Thus, small particles (less than, or <, 100 nm) appear blue while larger particles appear greener or redder. MANTA uses these images to count the nanoparticles and calculate their size based on Brownian motion. […] 3000™ (Horiba Scientific, USA). The temperature was set to 25° C. during the measurement. Automated noise analysis determines the optimal wavelength for representing each nanoparticle. Here, 8-bit composite videos were generated, and 10 videos were used per analysis (300 frames for seconds).

Test [4] is described as follows: Peptide-induced (Arg-Arg) assembly of AuNPs-citrate, TEM/MANTA/UV-Vis.
Text: Formation of AuNP assemblies. In this study, we investigated the possibility of forming convenient and reversible AuNPs assemblies using only elementary 15 nm AuNPs-citrate suspended in water and short peptides without the need for a complex surface modification. Peptides were used because they are relatively bulky and thus their steric prevented the particles from entering a permanent aggregated state. Arginine in particular can strongly interact with citrate anions via electrostatic interactions. A dipeptide containing two repetitions of arginine (Arg-Arg or RR) was thus used to interact with multiple particles at the same time and induce assembly.
Multispectral advanced nanoparticles tracking analysis (MANTA) was then used to confirm the size increase: The initial blue scattering corresponding to a hydrodynamic diameter of 40±25 nm (FIG. 1C) transformed immediately into red scattering corresponding to a hydrodynamic diameter of approximately 467±120 nm (FIG. 1D). Importantly, the count of particles decreased by more than 90%—from 2.5×10^5/mL to 2×10^4/mL, thus confirming that the vast majority of the AuNPs-citrate were aggregated. TEM images at different magnifications are seen in the supporting information (FIG. 10 and FIG. 11).
AuNPs Assembly and Dissociation Assembly. Typically, 1 mL of AuNPs-citrate at OD=1.5 was mixed with 50 μL of Arg-Arg (100 μM) to provoke the AuNPs assembly. The color of the suspensions rapidly changed from red to blue. The assembled AuNPs (Arg-Arg-AuNPs) were stable over time when stored at 4° C. and could be used for dissociation even month after their assembly.
as §1
The multispectral advanced nanoparticle tracking analysis (MANTA) is a technique that builds images from the particles' light scattering via three lasers of different wavelengths (for example, blue, green, and red); the wavelength of scattering depends on nanoparticle size. Thus, small particles (less than, or <, 100 nm) appear blue while larger particles appear greener or redder. MANTA uses these images to count the nanoparticles and calculate their size based on Brownian motion. MANTA was performed with the VIEWSIZER 3000™ (Horiba Scientific, USA). The temperature was set to 25° C. during the measurement. Automated noise analysis determines the optimal wavelength for representing each nanoparticle. Here, 8-bit composite videos were generated, and 10 videos were used per analysis (300 frames for seconds). A quartz cuvette with minimum volume of 1 mL was used for the measurement and the AuNPs concentrations was set up at 0.04 nM.

The mark [5] stands for this setting: critical dissociation concentration, X (no dissociation).

“Also recorded” adds a separate entry of the source. Where no end group is shown, it is not given here.

Regarding Ace-EEPPC-Am [Peptide A7], in test [1] (setting [5]), the “CDC” value is greater than 300 µM. Also, in test [1] (relative to A1 peptide), the “decreased to % of the dissociation capacity” value is recorded as 30%.
As for Ace-CGGKKEEAVLQSGF-Am [Peptide A19], the “peptide concentration causing non-desired particle dissociation” value in test [2] was “over 50 μM”.
As for “Ace-EEKKGGGGGGC-Am (Ac-EEKKGGGGGGC-NH2) [Peptide A13]”, in test [1] (same peptide concentration (30 μM)), the “dissociation capacity lower than the A12 peptides” value was 25%.
On to `O=C(O)CCS` [MPA, 3-mercaptopropionic acid, reference compound], for which the “dissociation of Arg-Arg-AuNPs assemblies” value in test [3] is reported as “none could dissociate the aggregates”.
For the compound Arg-Arg, the “decrease of the count of particles” value in test [4] (MANTA, from 2.5×10^5/mL to 2×10^4/mL after Arg-Arg) is recorded as “more than 90%”. Besides, the “Arg-Arg-induced aggregation of AuNPs-citrate in complex media” value in test [4] (biological fluids, high concentrations of Arg-Arg (>200 μM)) was “could not induce the AuNPs-citrate aggregation in biological fluids”. The “hydrodynamic diameter (MANTA) after addition of di-arginine peptide” value in test [4] (excess (10^4 equiv.), 10 μM Arg-Arg, 10 minutes, initial AuNPs-citrate 40±25 nm) is recorded as “approximately 467±120 nm”.
With “Ace-EEKKGGGGC-Am (Ac-EEKKGGGGC-NH2) [Peptide A12]”, in test [1], the “dissociation of aggregated AuNPs in diverse matrixes” value was “successfully dissociated the aggregated AuNPs in diverse matrixes” and the “concentration that dissociates AuNP aggregates” value was 16 µM.
Consider “Ace-EEKKGGCAVLQ-Am (Ac-EEKKGGCAVLQ-NH2) [Peptide A17]”, for which the particle dissociation result in test [1] is recorded as “failed to dissociate AuNP aggregates; also recorded: decreased the dissociation capacity”.
Same read-out and setting: under “Ace-KKEEPPC-Am (Ac-KKEEPPC-NH2) [Peptide A6]” stands “particle dissociation was quenched”; under Ace-CGGKKEEAVLQ-Am [Peptide A15], “higher dissociation capacity than the A14 peptide; also recorded: dissociated AuNP aggregates”.
As to “Arg-Gly-Gly-Gly-Arg (RGGGR-NH2) [reference compound]”, in test [4] (FIG. 1F), the “affinity for the AuNPs-citrate compared to Arg-Arg (RR)” value is “higher affinity for the particles than RR”.
Turning to “Ace-KEEKKPPC-Am (Ac-KEEKKPPC-NH2) [Peptide A4]”, the particle dissociation entry in test [1] was “no particle dissociations”.
In test [1] (spacer comparison PP, AA, GG), Ace-EEKKAAC-Am [Peptide A10] yielded a CDC of 150 µM.
“Ace-EEKKGGC-Am (Ac-EEKKGGC-NH2) [Peptide A11]”: in test [1], the “dissociation of aggregated AuNPs in diverse matrixes” value is “successfully dissociated the aggregated AuNPs in diverse matrixes”, the “concentration that dissociates AuNP aggregates” value worked out at 16 µM and the particle dissociation entry was “highest dissociation capacity compared to other spacers”. In addition, the CDC in test [1] (spacer comparison PP, AA, GG) was 16 µM.
Regarding “Ace-EEPPKKC-Am (Ac-EEPPKKC-NH2) [Peptide A5]”, the “dissociation capacity lower than A1 peptide” value in test [1] amounted to 50%. Also, the “CDC” value in test [1] (setting [5]) was greater than 300 µM.
Regarding `O=C(O)CCOCCOCCOCCOCCOCCOCCOCCOCCOCCOCCOCCOCCS` [HS-PEG12-COOH, HS—(CH2CH2O)12—CH2CH2COOH], the assemblies dissociated in test [3] (from concentrations of 10 μM) is recorded as 100%.
On to SGFR, for which the “impact of released fragment on the dissociation process” value in test [2] was “negligible impact on the dissociation process”.
Turning to “NH2-EEKKPPC-Am (H-EEKKPPC-NH2) [Peptide A3]”, the particle dissociation result in test [1] is reported as “no particle dissociations”.
The same measure, in the same setting: as for “Ace-EEKKPPG-Am (Ac-EEKKPPG-NH2) [Peptide A2]”, the entry is “failed to dissociate AuNP aggregates”.
Turning to `O=C(O)c1ccc(S)cc1` [MBA, 4-mercaptobenzoic acid, reference compound], in test [3], the “dissociation of Arg-Arg-AuNPs assemblies” value is given as “none could dissociate the aggregates”.
